# Counter-ions that a name gives are not always drawn.
# How the values were obtained:
# NASH patient = settings: cited from earlier work
# [1] = test system: rats fed with methionine-choline-deficient diet (NASH-like lesion in the liver); assay type: in vivo; settings: MCD diet 20 weeks, compared to the control group; for plasma ALT / plasma AST: oral once a day; for plasma ALT: EPA-E 1000, metformin hydrochloride 40, acetylsalicylic acid 20, simvastatin 5, valsartan 20 mg/kg; for plasma AST: EPA-E 1000 mg/kg, acetylsalicylic acid 20 mg/kg
# Experimental: Pharmacological action of EPA-E and/or metformin hydrochloride, acetylsalicylic acid, simvastatin, or valsartan on liver disorder and fibrosis is confirmed by using rats that have been fed with methionine-choline-deficient diet (hereinafter referred to as “MCD diet”) known to develop a NASH-like lesion in the liver.
# (§1) 7 week old male Wister rats are allowed to freely take normal diet (F-1, Funabashi Farm) or MCD diet (Dyets, Inc.) for 20 weeks under 12 hour light-dark cycles at 23° C. […] The administration is conducted orally once a day. The normal group and the control group are orally administered with 5% aqueous solution of gum arabic once a day. After 20 weeks, blood is collected for biochemical tests of the plasma, and pathological tests of the liver are also conducted.
# [2] = test system: SD rat fed with high-fat high-sucrose diet; assay: Effectiveness in high fat diet-fed rat; assay type: in vivo; settings: HF diet 4 weeks
# Experimental: 4 week old male SD rat is allowed to freely take normal diet (F-1, Funabashi Farm) or high-fat high-sucrose diet (TD88137, Harlan Teklad, hereinafter referred to as “HF diet”) for 4 weeks under 12 hour light-dark cycles at 23° C. […] The administration is conducted orally once a day. The normal group and the control group are orally administered with 5% aqueous solution of gum arabic once a day. After 4 weeks, blood is collected for determining neutrophil count and conduct biochemical tests of the plasma.
# [3] = test system: db/db mouse fed with MCD diet (NASH-like lesion in the liver); assay: Effectiveness in methionine-choline deficient diet diabetes model mouse; assay type: in vivo; settings: MCD diet 2 weeks, compared to the control group; for plasma ALT / plasma FFA amount: oral once a day, EPA-E 1000 mg/kg, metformin hydrochloride 80 mg/kg
# Experimental: Pharmacological action of EPA-E and/or metformin hydrochloride or olmesartan medoxomil for liver disorder and fibrosis is confirmed by using diabetes model rats that have been fed with MCD diet known to induce a NASH-like lesion in the liver.
# as §1, with “db/db mouse (Charles River Japan) is” for “Wister rats are”, “2” for “20”, “weeks, HOMA-IR is measured and” for “weeks,”, “test” for “tests”, “plasma.” for “plasma, and pathological tests of the liver are also conducted.”
# NASH patients = assay: Administration to patients with the definitive diagnosis of NASH for one year; assay type: in vivo, human
# Experimental: Patients with the definitive diagnosis of NASH are divided into 8 groups (each group consisting of 15 patients). EPA-E group is administered with Epadel S (Registered Trademark) 900 (containing 900 mg of EPA-E) twice a day. […] Administration of the Melbin (Registered Trademark) tablet is started from once a day, the dose is adequately adjusted depending on the conditions of the patient, and after 5 weeks from the start of the administration, the dose may be increased to twice a day, and after 9 weeks from the start of the administration, the dose may be increased to 3 times a day. The dose is adequately adjusted depending on the conditions of the patient. […] Administration of the Bayaspirin (Registered Trademark) tablet is started from twice a day at 10 tablet in total, and after 5 weeks from the start of the administration, the dose is reduced to once a day at 1 tablet in total. The dose is adequately adjusted depending on the conditions of the patient. […] Candesartan group is administered with Blopress (Registered Trademark) tablet 2 (containing 2 mg of candesartan cilexetil), and candesartan combination group is administered with Blopress (Registered Trademark) tablet 2 and Epadel S (Registered Trademark) 900 twice a day. Administration of the Mevalotin (Registered Trademark) tablet 5 and Blopress (Registered Trademark) tablet 2 is started from 1 tablet once a day, and after 5 weeks from the start of the administration, the dose is increased to twice a day at 2 tablets in total, and after 9 weeks from the start of the administration, the dose is further increased to twice a day at 4 tablets in total. The dose is adequately adjusted depending on the conditions of the patient. Criteria, monitoring, histological tests, statistical analysis of the patients are conducted according to the methods described in Am. J. Gastroenterol. 2001; 96: 2711-2717. Measurement of blood neutrophil count and HOMA-IR, blood biochemical tests such as ALT and AST are occasionally conducted during the administration period of one year, and liver biopsy is conducted after completing the administration for histological evaluation.
# [4] = NASH patient also suffering from hypertension, oral 50 mg/day for 48 weeks, Non-Patent Literature 9
# [5] = oral once a day, compared to the control group, EPA-E 1000 mg/kg, atorvastatin calcium hydrate 10 mg/kg
# [6] = NASH patient, oral 1500 mg/day for 4 months, Non-Patent Literature 4
# [7] = EPA-E 1000 mg/kg oral once a day
# [8] = administration period of one year, EPA-E group (Epadel S 900 twice a day) compared to the measurements before the treatment
# [9] = one year, Epadel S 900 (900 mg EPA-E) twice a day, compared to the measurements before the treatment
smiles,measurement,setting,value
CCCCc1nc(Cl)c(CO)n1Cc1ccc(-c2ccccc2-c2nn[nH]n2)cc1 [losartan],ALT,NASH patient; [4],improvement
same,ferritin,NASH patient; [4],improvement
same,type IV collagen,NASH patient; [4],improvement
CCCCC(=O)N(Cc1ccc(-c2ccccc2-c2nnn[nH]2)cc1)[C@H](C(=O)O)C(C)C [valsartan],plasma ALT,[1],suppression of the increase
"CC(C)c1c(C(=O)Nc2ccccc2)c(-c2ccccc2)c(-c2ccc(F)cc2)n1CC[C@@H](O)C[C@@H](O)CC(=O)O [atorvastatin, atorvastatin calcium hydrate]",IL-6,[2]; [5],suppressed increase
same,TNFα,[2]; [5],suppressed increase
same,ferritin,[2]; [5],suppressed increase
same,high sensitivity CPR,[2]; [5],suppressed increase
same,neutrophil count,[2]; [5],suppressed increase
same,thioredoxin,[2]; [5],suppressed increase
same,type IV collagen,[2]; [5],suppressed increase
"CN(C)C(=N)N=C(N)N [metformin, metformin hydrochloride]",plasma ALT,[1],suppression of the increase
same,HOMA-IR,[3]; metformin hydrochloride 80 mg/kg oral once a day,improved
same,plasma ALT,[3],suppressed increase
same,plasma FFA amount,[3],suppressed increase
same,lactic acid level,NASH patient; [6],significant increase
same,serum alanine aminotransferase (ALT) level,NASH patient; [6],significant decrease
"CC/C=C\C/C=C\C/C=C\C/C=C\C/C=C\CCCC(=O)OCC [EPA-E, ethyl icosapentate]",liver hydroxyproline content,[1]; [7],suppressed increase
same,plasma TIMP-1 content,[1]; [7],suppressed increase
same,plasma albumin,[1]; [7],suppressed increase
same,plasma choline esterase,[1]; [7],suppressed increase
same,plasma hyaluronic acid,[1]; [7],suppressed increase
same,plasma total bilirubin,[1]; [7],suppressed increase
same,plasma total protein,[1]; [7],suppressed increase
same,plasma type Iv collagen,[1]; [7],suppressed increase
same,plasma AST,[1],suppressed increase
same,plasma ALT,[1],suppressed increase
same,fibrosis area of liver,"[1]; Masson's trichrome stain, EPA-E 1000 mg/kg oral once a day",suppressed increase
same,TNFα,[3]; [7],suppressed increase
same,plasma AST,[3]; [7],suppressed increase
same,plasma TIMP-1,[3]; [7],suppressed increase
same,plasma adiponectin amount,[3]; [7],suppressed decrease
same,plasma hyaluronic acid,[3]; [7],suppressed increase
same,plasma type IV collagen,[3]; [7],suppressed increase
same,plasma ALT,[3],suppressed increase
same,plasma FFA amount,[3],suppressed increase
same,IL-6,[2]; [5],suppressed increase
same,TNFα,[2]; [5],suppressed increase
same,ferritin,[2]; [5],suppressed increase
same,high sensitivity CPR,[2]; [5],suppressed increase
same,neutrophil count,[2]; [5],suppressed increase
same,plasma ALT,[2]; [5],suppressed increase
same,plasma AST,[2]; [5],suppressed increase
same,thioredoxin,[2]; [5],suppressed increase
same,type IV collagen,[2]; [5],suppressed increase
same,AST,NASH patients; [8],decrease
same,HOMA-IR,NASH patients; [8],improved
same,IL-6,NASH patients; [8],decrease
same,TNFα,NASH patients; [8],decrease
same,adiponectin,NASH patients; [8],increases
same,ferritin,NASH patients; [8],decrease
same,fibrosis marker,NASH patients; [8],decrease
same,high sensitivity CPR,NASH patients; [8],decrease
same,thioredoxin,NASH patients; [8],decrease
same,"pathological test image of the liver tissue, overall rating of fat accumulation grade, inflammation grade and fibrosis stage by Brunt method","NASH patients; liver biopsy after one year, EPA-E group compared to the condition before the administration",improves
same,AZT,NASH patients; [9],decrease
same,blood neutrophil count,NASH patients; [9],decrease
same,"NASH (AST or ALT enzyme, inflammatory cytokine or oxidative stress marker, liver biopsy)","NASH patient; 2700 mg/day of high purity EPA-E for 12 months, Tanaka et al., Non-Patent Literature 3",amelioration of NASH was demonstrated
CC(=O)Oc1ccccc1C(=O)O [acetylsalicylic acid],effects on plasma and liver parameters like those of the EPA-E group,[1]; acetylsalicylic acid 20 mg/kg oral once a day,does not exhibit effects like those of the EPA-E group
same,plasma AST,[1],exacerbated
same,plasma ALT,[1],exacerbated
same,improvement of the parameters over the control group,[2]; acetylsalicylic acid 10 mg/kg oral once a day,does not exhibit significant improvement

# Source: patent US20110082119A1, “PROPHYLACTIC/AMELIORATING OR THERAPEUTIC AGENT FOR NON-ALCOHOLIC STEATOHEPATITIS” (priority 2008, published 2011)
